From patent US12428406B2 (PMV Pharmaceuticals, Inc., priority 2019, dated 2025)

Target: T1, p53 Y220C (Homo sapiens, UniProt P04637, Y220C)
T1 construct: The recombinant protein was a truncation mutant containing only amino acids 94-312 of p53; made in house; host or cells: E. coli
Test: In vitro DNA binding activity assay (HTRF / TR-FRET): stabilization of p53 Y220C and increase of its DNA binding activity
Format: biochemical
Conditions: recombinant His-tagged p53 Y220C DNA binding domain (aa 94-312), biotin-labeled consensus DNA, incubated at 27° C. or 29° C. for 60 min
Procedure, shortened: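 Compound effect on DNA binding of recombinant His-p53 Y220C (E. coli) to biotin-labeled consensus DNA, expressed as SC150, the concentration giving 50% increase versus untreated. Serial 3-fold DMSO dilutions of 4.5 mM stocks; room-temperature steps of 15 then 20 min.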

T1 sequence (P04637 94-312, change not shown): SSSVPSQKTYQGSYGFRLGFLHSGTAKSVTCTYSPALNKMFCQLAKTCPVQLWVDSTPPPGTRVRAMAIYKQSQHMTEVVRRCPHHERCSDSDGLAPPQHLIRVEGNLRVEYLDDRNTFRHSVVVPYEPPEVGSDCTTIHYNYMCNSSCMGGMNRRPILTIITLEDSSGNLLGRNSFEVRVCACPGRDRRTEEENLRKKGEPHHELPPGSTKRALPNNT

| SMILES | SC150 (concentration of the compound required to increase the DNA binding activity by 50%) |
| --- | --- |
| COc1cc(S(C)(=O)=O)ccc1NCC#Cc1cc2c(NC(=O)Nc3ccncc3)cccc2n1CC(F)(F)F [Compound 11A, 1-(2-(3-((2-methoxy-4-(methylsulfonyl)phenyl)amino)prop-1-yn-1-yl)-1-(2,2,2-trifluoroethyl)-1H-indol-4-yl)-3-(pyridin-4-yl)urea] | ++++ (++++ = 0.2 μM ≤ SC150 < 1 μM) |
| COCCN1CCC(NC(=O)Nc2cccc3c2cc(C#CCNc2ccc(S(C)(=O)=O)cc2OC)n3CC(F)(F)F)CC1 [Compound 13A, 3-(2-{3-[(4-methanesulfonyl-2-methoxyphenyl)amino]prop-1-yn-1-yl}-1-(2,2,2-trifluoroethyl)-1H-indol-4-yl)-1-[1-(2-methoxyethyl)piperidin-4-yl]urea] | ++++ (++++ = 0.2 μM ≤ SC150 < 1 μM) |
| COc1cc(S(C)(=O)=O)ccc1NCC#Cc1cc2c(NC(=O)NC3CCN(C4CCOCC4)CC3)cccc2n1CC(F)(F)F [Compound 14A, 3-(2-{3-[(4-methanesulfonyl-2-methoxyphenyl)amino]prop-1-yn-1-yl}-1-(2,2,2-trifluoroethyl)-1H-indol-4-yl)-1-[1-(oxan-4-yl)piperidin-4-yl]urea] | ++++ (++++ = 0.2 μM ≤ SC150 < 1 μM) |
| COc1cc(S(C)(=O)=O)ccc1NCC#Cc1cc2c(NC(=O)NC3CCN(CC(O)CO)CC3)cccc2n1CC(F)(F)F (centres unmarked) [Compound 15A, 1-[1-(2,3-dihydroxypropyl)piperidin-4-yl]-3-(2-{3-[(4-methanesulfonyl-2-methoxyphenyl)amino]prop-1-yn-1-yl}-1-(2,2,2-trifluoroethyl)-1H-indol-4-yl)urea] | ++++ (++++ = 0.2 μM ≤ SC150 < 1 μM) |
| COc1cc(S(C)(=O)=O)ccc1NCC#Cc1cc2c(NC(=O)NC3CCN(CC(N)=O)CC3)cccc2n1CC(F)(F)F [Compound 16A, 2-(4-{[(2-{3-[(4-methanesulfonyl-2-methoxyphenyl)amino]prop-1-yn-1-yl}-1-(2,2,2-trifluoroethyl)-1H-indol-4-yl)carbamoyl]amino}piperidin-1-yl)acetamide] | ++++ (++++ = 0.2 μM ≤ SC150 < 1 μM) |
| COc1cc(S(C)(=O)=O)ccc1NCC#Cc1cc2c(NC(=O)NC3CCN(CCO)CC3)cccc2n1CC(F)(F)F [Compound 17A, 1-[1-(2-hydroxyethyl)piperidin-4-yl]-3-(2-{3-[(4-methanesulfonyl-2-methoxyphenyl)amino]prop-1-yn-1-yl}-1-(2,2,2-trifluoroethyl)-1H-indol-4-yl)urea] | ++++ (++++ = 0.2 μM ≤ SC150 < 1 μM) |
| COc1cc(S(N)(=O)=O)ccc1NCC#Cc1cc2c(NC3CC4(COC4)C3)cccc2n1CC(F)(F)F [Compound 18A] | + (+ = 0 μM ≤ SC150 < 0.05 μM) |
| COc1cc(S(C)(=O)=O)ccc1NCC#Cc1cc2c(NC3CC(CO)(CCl)C3)cccc2n1CC(F)(F)F (centres unmarked) [Compound 19A, [1-(chloromethyl)-3-[(2-{3-[(4-methanesulfonyl-2-methoxyphenyl)amino]prop-1-yn-1-yl}-1-(2,2,2-trifluoroethyl)-1H-indol-4-yl)amino]cyclobutyl]methanol] | + (+ = 0 μM ≤ SC150 < 0.05 μM) |
| COc1cc(S(C)(=O)=O)ccc1NCC#Cc1cc2c(NC3CC4(COC4)C3)cccc2n1CC(F)(F)F [Compound 20A, 2-{3-[(4-methane-sulfonyl-2-methoxy-phenyl)amino]prop-1-yn-1-yl}-N-{2-oxaspiro[3.3]heptan-6-yl}-1-(2,2,2-trifluoroethyl)-1H-indol-4-amine] | + (+ = 0 μM ≤ SC150 < 0.05 μM) |
| COc1cc(S(N)(=O)=O)ccc1NCC#Cc1cc2c(NC3CC4(CNC4)C3)cccc2n1CC(F)(F)F [Compound 21A, 4-({3-[4-({2-azaspiro[3.3]heptan-6-yl}amino)-1-(2,2,2-trifluoroethyl)-1H-indol-2-yl]prop-2-yn-1-yl}amino)-3-methoxybenzene-1-sulfonamide] | + (+ = 0 μM ≤ SC150 < 0.05 μM) |
| COc1cc(S(C)(=O)=O)ccc1NCC#Cc1cc2c(NC3CC4(CNC4)C3)cccc2n1CC(F)(F)F [Compound 22A, N-{2-azaspiro[3.3]heptan-6-yl}-2-{3-[(4-methane-sulfonyl-2-methoxy-phenyl)amino]prop-1-yn-1-yl}-1-(2,2,2-trifluoroethyl)-1H-indol-4-amine] | + (+ = 0 μM ≤ SC150 < 0.05 μM) |

Further lines, results first:

| SC150 (concentration of the compound required to increase the DNA binding activity by 50%) | SMILES |
| --- | --- |
| ++++ (++++ = 0.2 μM ≤ SC150 < 1 μM) | COc1cc(S(C)(=O)=O)ccc1NCC#Cc1cc2c(NC(=O)N[C@H]3CC[C@@H](N(C)C)CC3)cccc2n1CC(F)(F)F [Compound 10A, 3-(2-{3-[(4-methanesulfonyl-2-methoxyphenyl)amino]prop-1-yn-1-yl}-1-(2,2,2-trifluoroethyl)-1H-indol-4-yl)-1-[(1S,4S)-4-(dimethylamino)cyclohexyl]urea] |
| + (+ = 0 μM ≤ SC150 < 0.05 μM) | COc1cc(S(C)(=O)=O)ccc1NCC#Cc1cc2c(NC(=O)N[C@H]3CC[C@H](N(C)C)CC3)cccc2n1CC(F)(F)F [Compound 12A, 3-(2-{3-[(4-methanesulfonyl-2-methoxyphenyl)amino]prop-1-yn-1-yl}-1-(2,2,2-trifluoroethyl)-1H-indol-4-yl)-1-[(1R,4R)-4-(dimethylamino)cyclohexyl]urea] |
| + (+ = 0 μM ≤ SC150 < 0.05 μM) | CNC(=O)c1ccc(NCC#Cc2cc3c(N[C@H]4CC[C@H](NC)CC4)cccc3n2CC(F)(F)F)c(OC)c1 [Compound 23A, 3-methoxy-N-methyl-4-{[3-(4-{[(1R,4R)-4-(methylamino)cyclo-hexyl]amino}-1-(2,2,2-trifluoroethyl)-1H-indol-2-yl)prop-2-yn-1-yl]amino}benzamide] |
| + (+ = 0 μM ≤ SC150 < 0.05 μM) | CNC(=O)c1ccc(NCC#Cc2cc3c(N[C@H]4CC[C@H](N)CC4)cccc3n2CC(F)(F)F)c(OC)c1 [Compound 24A, 3-methoxy-N-methyl-4-{[3-(4-{[(1R,4R)-4-aminocyclo-hexyl]amino}-1-(2,2,2-trifluoroethyl)-1H-indol-2-yl)prop-2-yn-1-yl]amino}benzamide] |
| + (+ = 0 μM ≤ SC150 < 0.05 μM) | CNC(=O)c1ccc(NCC#Cc2cc3c(N[C@H]4CC[C@@H](N)CC4)cccc3n2CC(F)(F)F)c(OC)c1 [Compound 25A, 3-methoxy-N-methyl-4-{[3-(4-{[(1S,4S)-4-aminocyclohexyl]amino}-1-(2,2,2-trifluoroethyl)-1H-indol-2-yl)prop-2-yn-1-yl]amino}benzamide] |
| ++ (++ = 0.05 μM ≤ SC150 < 0.1 μM) | COc1cc(S(C)(=O)=O)ccc1NCC#Cc1cc2c(N[C@@H]3CCCC[C@@H]3N)cccc2n1CC(F)(F)F [Compound 28A, (1R,2S)-N^1-(2-{3-[(4-methanesulfonyl-2-methoxyphenyl)amino]prop-1-yn-1-yl}-1-(2,2,2-trifluoroethyl)-1H-indol-4-yl)cyclo-hexane-1,2-diamine] |
